Measured values as given in ChEMBL document CHEMBL3044539, “Fungichromin: a substance from Streptomyces padanus with inhibitory effects on Rhizoctonia solani” (2003).
Converted amounts (≈) assume the structure as drawn. The source made the active and inactive calls. The calls are words filed in the database; no cut-off is given here.

Key:
Rhizoctonia solani [1] = assay: Antifungal activity against Rhizoctonia solani AG-4 RST-04 assessed as mycelial growth inhibition at 80 to 120 ug/ml after 2 days; format: functional, organism-based
Rhizoctonia solani [2] = assay: Antifungal activity against Rhizoctonia solani AG-4 RST-04 assessed as mycelial growth inhibition after 2 days; format: functional; conditions: AG-4 RST-04, 48 h

Q: With `CCCCC[C@@H](O)[C@H]1C(=O)O[C@H](C)[C@@H](O)/C=C/C=C/C=C/C=C/C=C(\C)[C@@H](O)[C@H](O)[C@H](O)C[C@H](O)C[C@H](O)C[C@H](O)C[C@H](O)C[C@@H]1O` [PENTAMYCIN] as the compound, how does the “growth inhibition (GI)” value (Rhizoctonia solani [1]) read?
A: The value was “Active”.

Q: And the MIC (Rhizoctonia solani [2])?
A: Its MIC is 72 µg/mL (≈ 107 µM).
